Experimental data: patent publication US5840740A, “Aminosterol compounds and a method of treating infection using the aminosterol compounds” (priority 1995, dated 1998)
Where a name gives a salt, the structure may show the parent alone.

Key:
[1] = tested on: Xenopus tadpole; details: stage 59-60, 10 μg/ml; in words
[2] = tested on: chick embryo vitelline capillaries; assay: Chick embryo vitelline capillary regression assay; type: in vivo; parameters: key to vascular reactivity (capillary regression): +: Vascular reactivity; 0: No vascular reactivity; +/-: Equivocal reactivity; details: for vascular reactivity (capillary regression): 60 min; for Chick embryo diss. assay, Minimum Effective Concentration: Table II; for effect on chick embryo vessels / blood: in words
Description: Using the chick embryo vitelline capillaries assay, compounds were tested for their ability to induce capillary regression. Each compound was applied in 0.1 ml of 15% Ficol 400 and PBS onto the embryo, and vascular regression was assessed after 60 minutes.
The 3-day chick embryo consists of an embryonic disc from which numerous vessels emerge and return, forming a "figure 8"-shaped structure--the embryo in the center with vascular loops extending outward over both poles. […] Following a lag period of around 15 minutes, the constriction of continuity between capillary and secondary vessels, generally on the "avenous" side, was observed. Continued pulsatile blood flow progressed, resulting in a "swelling" of the blind tube, followed by a pinching off of the remaining connection and formation of an enclosed vascular sac resembling a "blood island." This process progressed until only the largest vessels remained intact.

## CC(COS(=O)(=O)O)C(=O)CC[C@@H](C)[C@H]1CC[C@H]2[C@@H]3[C@H](O)C[C@H]4C[C@@H](NCCCNCCCCN)CC[C@]4(C)[C@H]3CC[C@]12C (single isomer, unassigned) [Compound 1360]
[1]
  pharmacological response in tadpole: Swelling and lysis of certain erythrocytes occurred, resulting in accumulation of nuclei within certain small vessels of the tail. Subsequent tissue breakdown occurred in areas of tail surrounding these nuclear plugs.
[2]; 1 μg applied
  vascular reactivity (capillary regression): 0
[2]
  Chick embryo diss. assay, Minimum Effective Concentration: > 10 µg
  effect on chick embryo vessels / blood: Within 20 minutes, the blood circulating through the embryonic vessels exhibited a brighter red color

## CC(C)CCC[C@@H](C)[C@H]1CC[C@H]2[C@@H]3CC[C@H]4C[C@@H](NCCCNCCCCN)CC[C@]4(C)[C@H]3CC[C@]12C [Compound 303]
[2]; 1 μg applied
  vascular reactivity (capillary regression): 0
[2]
  Chick embryo diss. assay, Minimum Effective Concentration: > 10 µg

## C[C@H](CCC(=O)O)[C@H]1CC[C@H]2[C@@H]3CC[C@H]4C[C@H](NCCCNCCCCN)CC[C@]4(C)[C@H]3CC[C@]12C [Compound 318]
[2]; 1 μg applied
  vascular reactivity (capillary regression): 0
[2]
  Chick embryo diss. assay, Minimum Effective Concentration: > 10 µg

## CC(C)CCC[C@@H](C)[C@H]1CC[C@H]2[C@@H]3CC[C@H]4C[C@H](NCCCNCCCCNCCCN)CC[C@]4(C)[C@H]3CC[C@]12C [Compound 354]
[2]
  Chick embryo diss. assay, Minimum Effective Concentration: > 10 µg

## CC(C)CCC[C@@H](C)[C@H]1CC[C@H]2[C@@H]3[C@H](O)C[C@H]4C[C@@H](NCCCNCCCCN)CC[C@]4(C)[C@H]3CC[C@]12C [Compound 371]
[1]
  pharmacological response in tadpole: effects like those produced by compound 1436
[2]; 0.001 μg applied
  vascular reactivity (capillary regression): 0
[2]; 0.01 μg applied
  vascular reactivity (capillary regression): 0
[2]; 0.1 μg applied
  vascular reactivity (capillary regression): 0
[2]; 1 μg applied
  vascular reactivity (capillary regression): +/-
[2]; 10 μg applied
  vascular reactivity (capillary regression): +
[2]
  Chick embryo diss. assay, Minimum Effective Concentration: 1 to 10 µg

## C[C@H](CCC(=O)O)[C@H]1CC[C@H]2[C@@H]3[C@H](O)C[C@H]4C[C@@H](NCCCNCCCCN)CC[C@]4(C)[C@H]3CC[C@]12C [Compound 381]
[2]; 1 μg applied
  vascular reactivity (capillary regression): 0
[2]
  Chick embryo diss. assay, Minimum Effective Concentration: > 10 µg

## C[C@H](CCC(=O)O)[C@H]1CC[C@H]2[C@@H]3[C@H](O)C[C@H]4C[C@H](NCCCNCCCCN)CC[C@]4(C)[C@H]3CC[C@]12C [Compound 382]
[2]; 0.001 μg applied
  vascular reactivity (capillary regression): 0
[2]; 0.01 μg applied
  vascular reactivity (capillary regression): 0
[2]; 0.1 μg applied
  vascular reactivity (capillary regression): 0
[2]; 1 μg applied
  vascular reactivity (capillary regression): +
[2]; 10 μg applied
  vascular reactivity (capillary regression): +
[2]
  Chick embryo diss. assay, Minimum Effective Concentration: 0.01 µg

## CC(C)CCC[C@@H](C)[C@H]1CC[C@H]2[C@@H]3CC[C@H]4C[C@H](NCCCN5CCCCN=C5N)CC[C@]4(C)[C@H]3CC[C@]12C [Compound 393]
[2]
  Chick embryo diss. assay, Minimum Effective Concentration: > 10 µg

## COC(=O)CC[C@@H](C)[C@H]1CC[C@H]2[C@@H]3[C@H](O)C[C@H]4C[C@H](NCCCNCCCCN)CC[C@]4(C)[C@H]3CC[C@]12C [Compound 394]
[2]
  Chick embryo diss. assay, Minimum Effective Concentration: > 10 µg

## COC(=O)CC[C@@H](C)[C@H]1CC[C@H]2[C@@H]3[C@H](O)C[C@H]4C[C@H](NCCCNCCCCNCCCN)CC[C@]4(C)[C@H]3CC[C@]12C [Compound 395]
[2]
  Chick embryo diss. assay, Minimum Effective Concentration: > 10 µg

## COC(=O)CC[C@@H](C)[C@H]1CC[C@H]2[C@@H]3[C@H](O)C[C@H]4C[C@@H](NCCCNCCCCNCCCN)CC[C@]4(C)[C@H]3CC[C@]12C [Compound 396]
[2]; 0.001 μg applied
  vascular reactivity (capillary regression): 0
[2]; 0.01 μg applied
  vascular reactivity (capillary regression): 0
[2]; 0.1 μg applied
  vascular reactivity (capillary regression): 0
[2]; 1 μg applied
  vascular reactivity (capillary regression): +
[2]
  Chick embryo diss. assay, Minimum Effective Concentration: 10 µg

## C[C@H](CCC(=O)O)[C@H]1CC[C@H]2[C@@H]3[C@H](O)C[C@H]4C[C@@H](NCCCNCCCCNCCCN)CC[C@]4(C)[C@H]3CC[C@]12C [Compound 397]
[2]
  Chick embryo diss. assay, Minimum Effective Concentration: 1 µg

## C[C@H](CCCOS(=O)(=O)O)[C@H]1CC[C@H]2[C@@H]3CC[C@H]4C[C@@H](NCCCNCCCCN)CC[C@]4(C)[C@H]3CC[C@]12C [Compound 399, 3β-N-1-{N[3-(4-Aminobutyl)]-1,3-diaminopropane}-24-hydroxy-5α-cholane 24-potassium sulfate]
[2]
  Chick embryo diss. assay, Minimum Effective Concentration: > 10 µg

## COC(=O)CC[C@@H](C)[C@H]1CC[C@H]2[C@@H]3[C@H](O)C[C@@H]4C[C@@H](NCCN)CC[C@]4(C)[C@H]3CC[C@]12C [Compound 409]
[1]
  pharmacological response in tadpole: functionally similar to compound 1437
[2]; 1 μg applied
  vascular reactivity (capillary regression): 0
[2]
  Chick embryo diss. assay, Minimum Effective Concentration: > 1 µg

## COC(=O)CC[C@@H](C)[C@H]1CC[C@H]2[C@@H]3[C@H](O)C[C@@H]4C[C@H](NCCN)CC[C@]4(C)[C@H]3CC[C@]12C [Compound 410]
[1]
  pharmacological response in tadpole: functionally similar to compound 1437
[2]; 0.001 μg applied
  vascular reactivity (capillary regression): 0
[2]; 0.01 μg applied
  vascular reactivity (capillary regression): +/-
[2]; 0.1 μg applied
  vascular reactivity (capillary regression): +/-
[2]; 1 μg applied
  vascular reactivity (capillary regression): +
[2]
  Chick embryo diss. assay, Minimum Effective Concentration: 0.01 µg

## COC(=O)CC[C@@H](C)[C@H]1CC[C@H]2[C@@H]3[C@H](O)C[C@@H]4C[C@@H](NCCCNCCCCNCCCN)CC[C@]4(C)[C@H]3CC[C@]12C [Compound 411]
[2]; 1 μg applied
  vascular reactivity (capillary regression): +/-
[2]
  Chick embryo diss. assay, Minimum Effective Concentration: > 1 µg

## C[C@H](CCC(=O)O)[C@H]1CC[C@H]2[C@@H]3[C@H](O)C[C@@H]4C[C@H](NCCCNCCCCNCCCN)CC[C@]4(C)[C@H]3CC[C@]12C [Compound 412]
[1]
  pharmacological response in tadpole: pharmacologic activity similar to that seen for FX 3
[2]; 0.001 μg applied
  vascular reactivity (capillary regression): 0
[2]; 0.01 μg applied
  vascular reactivity (capillary regression): 0
[2]; 0.1 μg applied
  vascular reactivity (capillary regression): 0
[2]; 1 μg applied
  vascular reactivity (capillary regression): +
[2]
  Chick embryo diss. assay, Minimum Effective Concentration: 1 µg

## C[C@H](CCC(=O)O)[C@H]1CC[C@H]2[C@@H]3[C@H](O)C[C@@H]4C[C@@H](NCCCNCCCCNCCCN)CC[C@]4(C)[C@H]3CC[C@]12C [Compound 413]
[1]
  pharmacological response in tadpole: effects like those produced by compound 1436
[2]; 1 μg applied
  vascular reactivity (capillary regression): 0
[2]
  Chick embryo diss. assay, Minimum Effective Concentration: > 1 µg

## C[C@H](CCC(=O)O)[C@H]1CC[C@H]2[C@@H]3[C@H](O)C[C@@H]4C[C@H](NCCN)CC[C@]4(C)[C@H]3CC[C@]12C [Compound 414]
[1]
  pharmacological response in tadpole: pharmacologic activity similar to Fraction 1
[2]; 1 μg applied
  vascular reactivity (capillary regression): 0
[2]
  Chick embryo diss. assay, Minimum Effective Concentration: > 1 µg

## C[C@H](CCC(=O)O)[C@H]1CC[C@H]2[C@@H]3[C@H](O)C[C@@H]4C[C@@H](NCCN)CC[C@]4(C)[C@H]3CC[C@]12C [Compound 415]
[2]; 0.001 μg applied
  vascular reactivity (capillary regression): 0
[2]; 0.01 μg applied
  vascular reactivity (capillary regression): +
[2]; 0.1 μg applied
  vascular reactivity (capillary regression): +
[2]; 1 μg applied
  vascular reactivity (capillary regression): +
[2]
  Chick embryo diss. assay, Minimum Effective Concentration: > 1 µg
  effect on chick embryo vessels / blood: especially active

## COC(=O)CC[C@@H](C)[C@H]1CC[C@H]2[C@@H]3CC[C@@H]4C[C@H](NCCN)CC[C@]4(C)[C@H]3C[C@H](O)[C@]12C [Compound 416]
[1]
  pharmacological response in tadpole: functionally similar to compound 1437
[2]
  Chick embryo diss. assay, Minimum Effective Concentration: > 1 µg

## C[C@H](CCC(=O)O)[C@H]1CC[C@H]2[C@@H]3CC[C@@H]4C[C@H](NCCN)CC[C@]4(C)[C@H]3C[C@H](O)[C@]12C [Compound 417]
[2]
  Chick embryo diss. assay, Minimum Effective Concentration: > 1 µg

## COC(=O)CC[C@@H](C)[C@H]1CC[C@H]2[C@@H]3C[C@@H](O)[C@H]4C[C@H](NCCN)CC[C@]4(C)[C@H]3CC[C@]12C [Compound 431]
[1]
  pharmacological response in tadpole: functionally similar to compound 1437
[2]
  Chick embryo diss. assay, Minimum Effective Concentration: > 1 µg

## COC(=O)CC[C@@H](C)[C@H]1CC[C@H]2[C@@H]3C[C@@H](O)[C@H]4C[C@@H](NCCN)CC[C@]4(C)[C@H]3CC[C@]12C [Compound 432]
[1]
  pharmacological response in tadpole: functionally similar to compound 1437
[2]
  Chick embryo diss. assay, Minimum Effective Concentration: > 1 µg

## C[C@H](CCC(=O)O)[C@H]1CC[C@H]2[C@@H]3C[C@@H](O)[C@H]4C[C@@H](NCCN)CC[C@]4(C)[C@H]3CC[C@]12C [Compound 433]
[1]
  pharmacological response in tadpole: functionally similar to compound 1437
[2]
  Chick embryo diss. assay, Minimum Effective Concentration: 1 µg

## COC(=O)CC[C@@H](C)[C@H]1CC[C@H]2[C@@H]3CC[C@@H]4C[C@H](NCCCNCCCCNCCCN)CC[C@]4(C)[C@H]3C[C@H](O)[C@]12C [Compound 448]
[2]
  Chick embryo diss. assay, Minimum Effective Concentration: 1 µg

## C[C@H](CCC(=O)O)[C@H]1CC[C@H]2[C@@H]3CC[C@@H]4C[C@H](NCCCNCCCCNCCCN)CC[C@]4(C)[C@H]3C[C@H](O)[C@]12C [Compound 449]
[2]
  Chick embryo diss. assay, Minimum Effective Concentration: > 1 µg

## COC(=O)CC[C@@H](C)[C@H]1CC[C@H]2[C@@H]3C[C@@H](O)[C@H]4C[C@H](NCCCNCCCCNCCCN)CC[C@]4(C)[C@H]3CC[C@]12C [Compound 465]
[1]
  pharmacological response in tadpole: pharmacologic activity similar to that seen for FX 3

## CC(C)CCC[C@@H](C)[C@H]1CC[C@H]2[C@@H]3[C@H](O)C[C@H]4C[C@H](N)CC[C@]4(C)[C@H]3CC[C@]12C [Compound 1363]
[1]
  pharmacological response in tadpole: pharmacologic activity similar to Fraction 1

## CC(C)CCC[C@@H](C)[C@H]1CC[C@H]2[C@@H]3[C@H](O)C[C@H]4C[C@@H](N)CC[C@]4(C)[C@H]3CC[C@]12C [Compound 1364]
[2]; 0.001 μg applied
  vascular reactivity (capillary regression): 0
[2]; 0.01 μg applied
  vascular reactivity (capillary regression): 0
[2]; 0.1 μg applied
  vascular reactivity (capillary regression): 0
[2]; 1 μg applied
  vascular reactivity (capillary regression): +
[2]; 10 μg applied
  vascular reactivity (capillary regression): +
